{
  "source": "patent US10870875B2",
  "about": "“Metalloprotein compositions” (Commonwealth Scientific and Industrial Research Organisation, priority 2014, dated 2020)",
  "key": {"[1]": {"target": "T1, recombinant honeybee (Apis mellifera) silk protein AmelF3, unmodified, SEQ ID NO: 39 (Apis mellifera, UniProt A0ACM8QI31)", "T1 construct": "sponges and films", "T1 sequence (A0ACM8QI31 entry or part of it)": "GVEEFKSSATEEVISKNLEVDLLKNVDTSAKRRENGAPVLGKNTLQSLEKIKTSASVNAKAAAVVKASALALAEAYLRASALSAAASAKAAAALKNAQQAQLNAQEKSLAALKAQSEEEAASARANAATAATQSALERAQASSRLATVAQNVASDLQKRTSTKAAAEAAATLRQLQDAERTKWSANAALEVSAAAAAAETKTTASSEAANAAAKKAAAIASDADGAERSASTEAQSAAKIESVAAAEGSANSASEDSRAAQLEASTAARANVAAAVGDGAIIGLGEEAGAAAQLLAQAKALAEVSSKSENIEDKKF", "assay": "Binding of macrocycles/chelates to AmelF3 sponges or films (colour retained after washing, UV/Vis)", "settings": "sponge or film, qualitative", "procedure": "(§1) Full length, recombinant honeybee silk proteins (AmelF3) without affinity purification tags, were produced by fermentation in Escherichia coli as described in Weisman et al. (2010). Full length, recombinant Weaver Ant/Green Ant (Oecophylla smaragdina) silk proteins (GA1, GA2, GA3, GA4) without affinity purification tags, were produced by fermentation in Escherichia coli following the same procedures as outlined in Weisman et al. (2010).\nAmelF3 sponges were prepared as described in example 1. […] The colour change observed with honeybee silk indicates a change in the coordination of the iron metal centre within the haem group, producing a material with a similar coordination to red haemoglobin. The colour was not removed by extensive washing with 70% methanol, 0.1M HCl or 0.1M NaCl.\nAn embodiment of the composition of the present invention was formed by co-drying a solution of AmelF3 and haem b. Briefly, 2 mg haem b and 20 mg AmelF3 silk sponge was dissolved in 1 mL of HFIP overnight at room temperature. The solution was aliquoted into either a cuvette or 24-well plate and dried at room temperature. The dried film was soaked overnight in 70% methanol to make the film insoluble in water.\n(§2) Alternatively, haem b was ‘leached’ into a pre-formed film. The AmelF3 material was formed as described in example 1. The silk material was soaked in a solution of haem b (0.5 mg/mL; haem b in excess) in 70% methanol solution for between 1 and 48 hours followed by washing with 70% methanol to remove any unbound haem b and dried at room temperature.\nAmelF3 films with different ratios of haem b to AmelF3 were prepared by co-drying haem and AmelF3 HFIP solutions. At low haem loadings (haem:protein molar ratios of 1:1 and 1:2), a sharp Soret peak at 404 nm was observed, indicative of all the haem being coordinated (FIG. 3). As the concentration of haem b relative to the protein was increased, the Soret peak broadened and shifted to lower wavelengths indicating an increase in the amount of uncoordinated haem (FIG. 3).\nThe ability of sponges generated from recombinant AmelF3 to bind a range of macrocyles was tested by adding a solution of the macrocmacrocycle containing an excess of the macrocycle to be tested to the AmelF3 sponge and observing the colour of the sponge and whether the sponge retained colour after washing. The strength of macrocycle binding was assessed qualitatively by assessing the intensity of the colour retained by the sponge after washing. Strong binding to the sponge refers to the finding that the macrocycle cannot be washed out with aqueous methanol, organic solvents, 0.1 M HCl or 0.1 M NaOH.\nFilms generated from recombinant honeybee silk protein AmelF3 containing dicyanocobyrinic acid heptamethyl ester were prepared as described in example 3. UV/Vis spectrum were recorded for a film generated from recombinant AmelF3 containing dicyanocobyrinic acid heptamethyl ester and a solution of dicyanocobyrinic acid heptamethyl ester without AmelF3 (FIG. 8)."}, "[2]": {"target": "T2, Apis mellifera AmelF3 (SEQ ID NO: 39) variant Y76H A97H (Apis mellifera, UniProt A0ACM8QI31, A116H/Y95H)", "T2 sequence (A0ACM8QI31 20-335 Y95H/A116H)": "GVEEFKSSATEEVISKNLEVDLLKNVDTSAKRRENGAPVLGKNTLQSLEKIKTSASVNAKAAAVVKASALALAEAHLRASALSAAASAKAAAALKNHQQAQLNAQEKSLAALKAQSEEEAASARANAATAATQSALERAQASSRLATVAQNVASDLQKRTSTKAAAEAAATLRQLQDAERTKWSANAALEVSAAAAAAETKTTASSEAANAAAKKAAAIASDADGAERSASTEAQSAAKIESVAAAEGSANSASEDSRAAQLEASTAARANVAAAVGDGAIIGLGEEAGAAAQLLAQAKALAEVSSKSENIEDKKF", "assay": "Binding of heme to AmelF3 Y76H A97H", "settings": "Soret peak vs heme ratio", "procedure": "(§3) Site directed mutagenesis of honeybee silk proteins was carried using methods known to the person skilled in the art. For example, to generate AmelF3 Tyr76Ala, the forward primer 5′-[…]-3′ (SEQ ID NO: 80) with the corresponding reverse primer was employed and site directed mutagenesis was carried out using Pfx 50 DNA polymerase from Invitrogen following the Pfx50 manufactures instructions. All AmelF3 mutants were expressed and purified using a similar procedure as the unmodified AmelF3 silk protein. To generate AmelF3 Tyr76His, the forward primer 5′-[…]-3′ (SEQ ID NO: 81) with the corresponding reverse primer was employed. To generate AmelF3 Ala97His, the forward primer 5′-[…]-3′ (SEQ ID NO: 82) was used.\nA coordinating His residue (His97) was introduced into AmelF3 with Y76H substitution in the a-position of the coiled-coil."}, "[3]": {"target": "T3, Apis mellifera AmelF3 (SEQ ID NO: 39) variant Y76A A97H (Apis mellifera, UniProt A0ACM8QI31, A116H/Y95A)", "T3 sequence (A0ACM8QI31 20-335 Y95A/A116H)": "T2 sequence (A0ACM8QI31 20-335 Y95H/A116H) with H76A", "assay": "Binding of haem to AmelF3 Y76A A97H", "settings": "sharp Soret peak at 413 nm", "procedure": "as §3\nA coordinating His residue was introduced into AmelF3 with Y76A in the a-position of the coiled-coil."}, "[4]": {"target": "T4, Oecophylla smaragdina silk fibroin 3 (GA3), SEQ ID NO: 11 (Oecophylla smaragdina, UniProt A8IM91)", "T4 construct": "film", "T4 sequence (A8IM91 20-395)": "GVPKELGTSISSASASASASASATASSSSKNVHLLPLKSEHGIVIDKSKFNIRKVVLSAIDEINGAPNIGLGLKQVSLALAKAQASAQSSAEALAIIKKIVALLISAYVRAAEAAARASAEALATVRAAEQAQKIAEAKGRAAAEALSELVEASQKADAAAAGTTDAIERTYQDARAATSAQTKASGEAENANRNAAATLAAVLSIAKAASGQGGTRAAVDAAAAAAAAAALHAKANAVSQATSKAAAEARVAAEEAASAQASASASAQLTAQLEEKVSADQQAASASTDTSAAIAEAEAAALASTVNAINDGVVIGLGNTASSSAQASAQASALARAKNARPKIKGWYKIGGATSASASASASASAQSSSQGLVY", "assay": "Haem b leached into green ant silk GA3 film", "assay_type": "binding", "settings": "signal at around 400 nm", "from_the_text": "as §1, §2\nTransparent films from the Green Ant (Oecophylla smaragdina) (GA1-4) silk proteins were prepared as described above. Haem b in 70% methanol was leached into the preformed Green Ant silk film as described at Example 3. UV/Vis spectra were collected for Green Ant silk film after haem b had been leached."}},
  "note": "Substitutions are numbered along the chain they refer to.",
  "data": [
    {"smiles": "C=CC1=C(C)c2cc3[nH]c(cc4nc(cc5[nH]c(cc1n2)c(C)c5CCC(=O)O)C(CCC(=O)O)=C4C)c(C)c3C=C.[Fe]", "note": "[haem b]", "values": [
      {"measurement": "binding to silk protein (in words)", "setting": "[1]", "result": "strongly bound"},
      {"measurement": "number of heme cofactors bound", "setting": "[2]", "result": "two"},
      {"measurement": "haem coordination (in words)", "setting": "[3]", "result": "indicative of histidine coordination"},
      {"measurement": "haem binding (in words)", "setting": "[4]", "result": "strongly bound haem"}
    ]}
  ]
}
